Reference: patent US8518872B2, “Methods of using (+)-1,4-dihydro-7-[(3S,4S)-3-methoxy-4-(methylamino)-1-pyrrolidinyl]-4-OXO-1-(2-thiazolyl)-1,8-naphthyridine-3-carboxylic acid in combination therapy” (Sunesis Pharmaceuticals, Inc., priority 2007, dated 2013)
Several values for one entry are separate records, joined by “and”; a condition that tells them apart may be missing. Identical values can stand only once.

Key:
[1] = tested on: subcutaneous H460 (non-small cell lung carcinoma); experiment: SNS-595 and carboplatin in non-small cell lung carcinoma H460 xenograft model; type: in vivo, athymic nude mice; details: SNS-595 10 mg/kg IV qw x5, carboplatin 75 mg/kg IP qw x3, combination of both
Procedure: The effect of co-administration of SNS-595 and carboplatin was observed on the growth of non-small cell lung carcinoma, athymic nude mice bearing subcutaneous H460. The mice were treated with SNS-595, carboplatin or the two in combination as indicated below.

[2] = tested on: subcutaneous A2780 xenografts (ovarian carcinoma); experiment: SNS-595 and cisplatin in ovarian carcinoma A2780 xenograft model; details: SNS-595 10 mg/kg IV qw x3, cisplatin 5 mg/kg IP qw x3, combination of both
Procedure: The effect of co-administration of SNS-595 and cisplatin was observed on the growth of ovarian carcinoma studied in athymic nude mice bearing subcutaneous A2780 xenografts. The mice were treated with SNS-595, cisplatin or the two in combination as indicated below.
Animal treatment was initiated when mean tumor volume was 200 mm^3. The combination was co-dosed once a week for three weeks. Tumor volumes and animal body weight were measured twice weekly.

[3] = tested on: subcutaneous H460 xenografts (non-small cell lung carcinoma); experiment: SNS-595 and gemcitabine in non-small cell lung carcinoma H460 xenograft model; type: in vivo, athymic nude mice; details: SNS-595 10 mg/kg IV qw x3, gemcitabine 75 mg/kg IP biw x2, combination of both; for BW Nadir: H460 xenograft mice; for BW Nadir (Day of): day of body weight nadir
Procedure: The effect of co-administration of SNS-595 and gemcitabine on the growth of non-small cell lung carcinoma, athymic nude mice bearing subcutaneous H460 xenografts were treated with SNS-595, gemcitabine or the two in combination as indicated below.
SNS-595 was administered once a week and gemcitabine was twice weekly as indicated above with the combination being co-dosed. In the vehicle group, the gemcitabine vehicle was administered 24 hours after the SNS-595 vehicle representing additional treatment arms in the experiment. Tumor volume and animal body weight was measured at least twice weekly.

[4] = tested on: subcutaneous BxPC-3 xenografts (pancreatic carcinoma); experiment: SNS-595 and gemcitabine in pancreatic carcinoma BxPC-3 xenograft model; type: in vivo, NIH-III mice; details: SNS-595 15 mg/kg IV qw x3, gemcitabine 65 mg/kg IP biw x3; for BW Nadir: BxPC-3 xenograft mice; for BW Nadir / % Tumor Growth Inhibition (Day 38) / BW Nadir (Day of): combination of both; for BW Nadir (Day of): day of body weight nadir
Procedure: SNS-595 was administered once a week and gemcitabine was twice weekly for two weeks followed by one additional dose as indicated above with the combination being co-dosed. Tumor volume and animal body weight was measured at least once weekly. SNS-595 was administered once a week and gemcitabine was twice weekly for two weeks followed by one additional dose as indicated above with the combination being co-dosed. Tumor volume and animal body weight was measured at least once weekly.

[5] = Solubility of SNS-595 in acidic compositions; type: physicochemical; details: acidic compositions (<pH 4)
Procedure: An illustrative example of a suitable composition comprises: 10 mg SNS-595 per mL of aqueous solution of 4.5% sorbitol that is adjusted to pH 2.5 with methanesulfonic acid. One protocol for making such a solution includes the following for making a 100 mg/10 mL presentation: 100 mg of SNS-595 and 450 mg D-sorbitol are added to distilled water; the volume is brought up to a volume of 10 mL; and the pH of the resulting solution is adjusted to 2.5 with methanesulfonic acid. The resulting composition is also suitable for lyophilization. The lyophilized form is then reconstituted with sterile water to the appropriate concentration prior to use.

Structure (SMILES)	% Tumor Growth Inhibition (Day 16) [1]	Tumor Growth Delay [1]	% Tumor Growth Inhibition (Day 11) [2]	Tumor Growth Delay [2]	% Tumor Growth Inhibition (Day 11) [3]	BW Nadir [3]	Tumor Growth Delay [3]	BW Nadir (Day of) [3]	BW Nadir [4]	% Tumor Growth Inhibition (Day 38) [4]	Tumor Growth Delay [4]	BW Nadir (Day of) [4]	other results
N.N.O=C([O-])C1(C(=O)[O-])CCC1.[Pt+2] [Carboplatin, carboplatin]	31.6%	12.5 days	–	–	–	–	–	–	–	–	–	–	% Tumor Growth Inhibition (Day 16) ([1]; listed as carboplatin): 32%; BW Nadir ([1]; H460 xenograft mice): −2.8%; BW Nadir (Day of) ([1]; day of body weight nadir): (Day 16)
N.N.[Cl][Pt][Cl] [Cisplatin, cisplatin]	–	–	49.0%	11.0 days	–	–	–	–	–	–	–	–	BW Nadir ([2]; A2780 xenograft mice): −10.9%; % Tumor Growth Inhibition (Day 11) ([2]; listed as cisplatin): 49%; BW Nadir (Day of) ([2]; day of body weight nadir): (Day 11)
Nc1ccn([C@@H]2O[C@H](CO)[C@@H](O)C2(F)F)c(=O)n1 [Gemcitabine, gemcitabine]	–	–	–	–	36.6%	−7.4%	5.0 days	(Day 11)	0%	20.2%	12.5 days	(Day 0)	% Tumor Growth Inhibition (Day 11) ([3]; listed as gemcitabine): 37%; % Tumor Growth Inhibition (Day 38) ([4]; listed as gemcitabine): 20%
CN[C@H]1CN(c2ccc3c(=O)c(C(=O)O)cn(-c4nccs4)c3n2)C[C@@H]1OC [SNS-595, (+)-1,4-dihydro-7-[(3S,4S)-3-methoxy-4-(methylamino)-1-pyrrolidinyl]-4-oxo-1-(2-thiazolyl)-1,8-naphthyridine-3-carboxylic acid]	53% and 53.2%	23.0 days	21.7%	5.5 days	62% and 61.9%	−5.9%	11.0 days	(Day 11)	−2.5%	26% and 25.9%	23.0 days	(Day 11)	solubility [5]: increased solubility
